Measurements reported in PubChem BioAssay AID1963434 (Molecular Pharmacology Branch, DTP, NCI, 2024).

Test system: 755483-174-R-J1-PDC complex spheroid growth, percent test/control
Assay: Anticancer human tumor 755483-174-R-J1-PDC patient-derived rhabdomyosarcoma cell line growth inhibition [Asc]
Conditions: for IC50: curve of first compound; for viability, T/C: stronger effect = lower value
Experimental: Multicellular complex tumor spheroid response to apoptosis pathway targeting inhibitors Alrizomadlin, Pelcitoclax, and Dasminapant in combination with a variety of drugs and investigational agents in selected tumor cell lines
The MDM2 inhibitor alrizomadlin, the Bcl-2/Bcl-xL inhibitor pelcitoclax, and the IAPs inhibitor dasminapant were evaluated both individually and in combination with standard of care and investigational anticancer small molecules within a complex spheroid model of solid tumors. . Complex spheroids include a stromal component modeled by human endothelial cells (HUVEC) and fibroblasts modeled by human mesenchymal stem cells (MSCs). The concentration ranges selected for each drug and investigational agent were based upon clinically achievable concentrations if the clinical Cmax of the agent was known.
Compounds. The drugs and investigational agents: alrizomadlin (APG-115; NSC831270), pelcitoclax (APG-1252; NSC835773), dasminapant (APG-1387;NSC834197), TAK-243 (NSC785004), copanlisib (NSC809693), olaparib (NSC753686), talazoparib (NSC767125), cobimetinib (NSC 768068), eltanexor (KPT-8602, NSC 794443), abemaciclib (NSC 768073), sotorasib (NSC818433), adagrasib (NSC 831453), MRTX-1133 (NSC 836407), Iadademestat (ORY1001, NSC 806812), and RMC-4630 (NSC839698), were obtained from the NCI Developmental Therapeutics Program Chemical Repository. The FDA-approved anticancer drug set is available from the Developmental Therapeutics Program at https://dtp.cancer.gov/organization/dscb/obtaining/available plates.htm. […] The stock solutions were prepared in dimethyl sulfoxide (DMSO, Sigma-Aldrich, St. Louis, MO, cat. D2650) at 800-fold the tested concentration and stored at -70 degrees C prior to their use. All drugs and investigational agents were tested over a range starting from a high concentration at or near the clinical Cmax and decreasing in half-log increments. If the clinical Cmax for an agent had not been determined, the highest concentration tested was 10 microM.
The patient-derived cancer (PDC) cell lines include five colon adenocarcinomas: 186277-243-T-J2-PDC, 616215-338-R-J1-PDC, 439559-082-T-J2-PDC, 463943-066-T-J2-PDC, and 519858-162-T-J1-PDC; three pancreatic carcinomas: 323965-272-R-J2-PDC, 521955-158-R6-J3-PDC, and 521955-158-R2-J5-PDC; two uterine sarcomas: 327498-152-R-J2-PDC and 993429-296-R-J1-PDC; two rhabdomyosarcomas: 755483-174-R-J1-PDC and 772245-204-R-J1-PDC; two soft tissue sarcomas: 126254-015-R-J1-PDC and 494315-158-R-J1-PDC; two malignant fibrous histiocytomas: 317291-083-R-J1-PDC and 596521-263-R-J1-PDC; two breast carcinomas: 171881-019-R-J1-PDC and 885512-296-R-J2-PDC; and one ovarian carcinoma: 6556581-035-R-J-PDC were obtained from the NCI PDMR, (https://pdmr.cancer.gov). The established cell lines HSSY-2 synovial sarcoma (RRID:CVCL 8719), SYO-1 synovial sarcoma (RRID:CVCL_7146), MPNST malignant peripheral neural sheath tumor were obtained from the Sloan Kettering Institute. The following established cell lines were purchased from the American Type Culture Collection (ATCC, Manassas, VA), Sor the received from the NCI repository:, PANC-1 pancreatic carcinoma (CRL-1469, RRID:CVCL_0480), OVCAR-5 ovarian carcinoma (RRID:CVCL_1628), OVCAR-8 ovarian carcinoma (RRID:CVCL_1629), , MCF-7 breast carcinoma (CRL-12584, RRID:CVCL_0031), MDA-MB-231 breast carcinoma (CRL-12532, RRID:CVCL_0062), NCI-H1876 small cell lung carcinoma (CRL-5902, RRID:CVCL_1503), NCI-H510A small cell lung carcinoma (HTB-184, RRID:CVCL_1565), NCI-H1417 (CRL-5869, RRID:CVCL_1469), and NCI-H196 small cell lung carcinoma (CRL-5823, RRID:CVCL_1509). Dr. Peter Houghton (Greehey Children's Cancer Research Institute, University of Texas Health Science Center, San Antonio, TX) provided Rh-18 rhabdomyosarcoma (RRID:CVCL_1659). Pooled donor human umbilical vein endothelial cells (HUVEC, Lonza, cat. CC-2519) and human mesenchymal stem cells (hMSC, Lonza, cat. PT-2501) were purchased from Lonza (Walkersville, MD).
Cell Culture. […]

[1] = second compound 0.03 µM, first compound 0.00316 µM
[2] = second compound 0.03 µM, first compound 0.01 µM
[3] = second compound 0.03 µM, first compound 0.0316 µM
[4] = second compound 0.03 µM, first compound 0.1 µM
[5] = second compound 0.0949 µM, first compound 0.00316 µM
[6] = second compound 0.0949 µM, first compound 0.01 µM
[7] = second compound 0.0949 µM, first compound 0.0316 µM
[8] = second compound 0.0949 µM, first compound 0.1 µM
[9] = second compound 0.3 µM, first compound 0.00316 µM
[10] = second compound 0.3 µM, first compound 0.01 µM
[11] = second compound 0.3 µM, first compound 0.0316 µM
[12] = second compound 0.3 µM, first compound 0.1 µM
[13] = second compound 0.949 µM, first compound 0.00316 µM
[14] = second compound 0.949 µM, first compound 0.01 µM
[15] = second compound 0.949 µM, first compound 0.0316 µM
[16] = second compound 0.949 µM, first compound 0.1 µM
[17] = second compound 3 µM, first compound 0.00316 µM
[18] = second compound 3 µM, first compound 0.01 µM
[19] = second compound 3 µM, first compound 0.0316 µM
[20] = second compound 3 µM, first compound 0.1 µM
[21] = second compound 0.03 µM, first compound 0.316 µM
[22] = second compound 0.03 µM, first compound 1 µM
[23] = second compound 0.0949 µM, first compound 0.316 µM
[24] = second compound 0.0949 µM, first compound 1 µM
[25] = second compound 0.3 µM, first compound 0.316 µM
[26] = second compound 0.3 µM, first compound 1 µM
[27] = second compound 0.949 µM, first compound 0.316 µM
[28] = second compound 0.949 µM, first compound 1 µM
[29] = second compound 3 µM, first compound 0.316 µM
[30] = second compound 3 µM, first compound 1 µM
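Further: spheroids exposed to compounds for seven days before readout.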

Row | IC50 (second compound 0.03 µM) [nM] | IC50 (second compound 0.0949 µM) [nM] | IC50 (second compound 0.3 µM) [nM] | IC50 (second compound 0.949 µM) [nM] | IC50 (second compound 3 µM) [nM] | SMILES | viability, T/C [1] [%] | viability, T/C [2] [%] | viability, T/C [3] [%] | viability, T/C [4] [%] | viability, T/C [5] [%] | viability, T/C [6] [%] | viability, T/C [7] [%] | viability, T/C [8] [%] | viability, T/C [9] [%] | viability, T/C [11] [%] | viability, T/C [12] [%] | viability, T/C [15] [%] | viability, T/C [16] [%] | viability, T/C [19] [%] | viability, T/C [20] [%] | also measured
1 | 10.9 | 12.4 | 5.94 | 7.98 | 1.56 | Cn1ncnc1[C@H]1c2n[nH]c(=O)c3cc(F)cc(c23)N[C@@H]1c1ccc(F)cc1 + CCN1C(C(=O)NC23CCC(C(=O)O)(CC2)CC3)C(c2cccc(Cl)c2F)C2(C(=O)Nc3cc(Cl)ccc32)C12CCCCC2 | 55.6 | 48.1 | 45.9 | 35.1 | 62.7 | 54.1 | 31.1 | 35.5 | 58.6 | 30.4 | 32.6 | 43.1 | 33.8 | 41.6 | 39.3 | viability, T/C (second compound 0.03 µM, first compound 0.000316 µM): 64.6%; viability, T/C (second compound 0.03 µM, first compound 0.001 µM): 64.9%; viability, T/C (second compound 0.0949 µM, first compound 0.000316 µM): 70.1%; viability, T/C (second compound 0.0949 µM, first compound 0.001 µM): 71.2%; viability, T/C (second compound 0.3 µM, first compound 0.000316 µM): 64.9%; viability, T/C (second compound 0.3 µM, first compound 0.001 µM): 55%; viability, T/C [10]: 42.7%; viability, T/C (second compound 0.949 µM, first compound 0.000316 µM): 66.6%; viability, T/C (second compound 0.949 µM, first compound 0.001 µM): 66.2%; viability, T/C [13]: 74%; viability, T/C [14]: 45.4%; viability, T/C (second compound 3 µM, first compound 0.000316 µM): 59.6%; viability, T/C (second compound 3 µM, first compound 0.001 µM): 51.8%; viability, T/C [17]: 45.5%; viability, T/C [18]: 45.5%
2 | 1700 | 2560 | 1610 | 1570 | 1110 | O=C(c1cc(Cc2n[nH]c(=O)c3ccccc23)ccc1F)N1CCN(C(=O)C2CC2)CC1 + CCN1C(C(=O)NC23CCC(C(=O)O)(CC2)CC3)C(c2cccc(Cl)c2F)C2(C(=O)Nc3cc(Cl)ccc32)C12CCCCC2 | – | – | 58.3 | 60.6 | – | – | 79.4 | 77 | – | 80.3 | 63 | 86.2 | 69.2 | 71.3 | 70.8 | viability, T/C [21]: 68.3%; viability, T/C [22]: 48.4%; viability, T/C (second compound 0.03 µM, first compound 3.16 µM): 46%; viability, T/C (second compound 0.03 µM, first compound 10 µM): 23.4%; viability, T/C [23]: 72%; viability, T/C [24]: 64.3%; viability, T/C (second compound 0.0949 µM, first compound 3.16 µM): 46.5%; viability, T/C (second compound 0.0949 µM, first compound 10 µM): 26.1%; viability, T/C [25]: 55.8%; viability, T/C [26]: 57.7%; viability, T/C (second compound 0.3 µM, first compound 3.16 µM): 52%; viability, T/C (second compound 0.3 µM, first compound 10 µM): 28.6%; viability, T/C [27]: 66%; viability, T/C [28]: 58.4%; viability, T/C (second compound 0.949 µM, first compound 3.16 µM): 44.2%; viability, T/C (second compound 0.949 µM, first compound 10 µM): 20.9%; viability, T/C [29]: 50%; viability, T/C [30]: 49.5%; viability, T/C (second compound 3 µM, first compound 3.16 µM): 51.4%; viability, T/C (second compound 3 µM, first compound 10 µM): 27.5%
3 | 534 | 338 | 426 | 273 | 329 | O=C(c1ccc(F)c(F)c1Nc1ccc(I)cc1F)N1CC(O)([C@@H]2CCCCN2)C1 + CCN1C(C(=O)NC23CCC(C(=O)O)(CC2)CC3)C(c2cccc(Cl)c2F)C2(C(=O)Nc3cc(Cl)ccc32)C12CCCCC2 | 85.3 | 108 | 95.4 | 99.2 | 113 | 124 | 117 | 93.5 | 109 | 102 | 118 | 134 | 121 | 90 | 97.5 | viability, T/C [21]: 78.3%; viability, T/C [22]: 16%; viability, T/C [23]: 53%; viability, T/C [24]: 18.6%; viability, T/C [10]: 109%; viability, T/C [25]: 61%; viability, T/C [26]: 18.2%; viability, T/C [13]: 126%; viability, T/C [14]: 127%; viability, T/C [27]: 39.8%; viability, T/C [28]: 18.3%; viability, T/C [17]: 104%; viability, T/C [18]: 120%; viability, T/C [29]: 50.3%; viability, T/C [30]: 16.4%
